Data set [1] in a line: Aqueous stability in neutral buffer (LC-MS / HPLC). It is filed as physicochemical. To be noted: 4 μM in Tris buffer (pH 7.4) containing 10% DMF at 37° C., monitored over 300-500 min. As for the experimental part: The aqueous stability of 23 and reference compound seco-CBI-TMI was investigated by LC-MS analysis. Samples containing the payloads at a concentration of 4 μM in Tris buffer (pH 7.4) containing 10% DMF at 37° C. were monitored at regular intervals over 300-500 min.
The aqueous stability of compounds 52, 59 and 66 was investigated by HPLC analysis. The conditions were the same as those described in Example 8, i.e. samples contained the payloads at a concentration of 4 μM in Tris buffer (pH 7.4) containing 10% DMF at 37° C. In this experiment the solutions were monitored at hourly intervals over 8 h.

In a further data set the test system is ovarian carcinoma SKOV3. The data set is described as follows: Cytotoxicity: inhibition of proliferation, sulforhodamine B staining. Format: cell-based, human. To be noted: for pIC50: Homo sapiens; for differential cytotoxic potency between enantiomers 82 and 83: SKOV3. As for the experimental part: (§1) The cytotoxicity of the payloads of the invention was determined by measuring the inhibition of proliferation of two human tumour cell lines, the cervical carcinoma SiHa, and the ovarian carcinoma SKOV3. Log-phase monolayers were exposed continuously to the payloads for 5 days in 96-well plates, followed by sulforhodamine B staining. The IC50 was determined by interpolation as the drug concentration required to inhibit cell density to 50% of that of the untreated controls on the same plate. Every plate contained the reference compound seco-CBI-TMI as an internal control.
(§2) The cytotoxicity of the payloads of the invention was determined by measuring the inhibition of proliferation of two human tumour cell lines, the cervical carcinoma SiHa, and the ovarian carcinoma SKOV3, following the general procedure described in Example 7. In the new determinations the stock solution of payload in DMSO was diluted in series prior to addition to the cell-containing wells of the 96-well plate. The cytotoxicity determinations were repeated several times (n=3-7 depending on compound and cell line) and the results are collected in Table 4.

In another data set the test system is cervical carcinoma SiHa. The description is as above. It is filed as cell-based, human. The following applies: for pIC50: Homo sapiens. How it is done: as §1, §2
Data set [2] in a line: Calculated lipophilicity, ACD/log P. The following applies: Table 3; difference CBI minus MBO, same side chain. From the text: (§3) Lipophilicity of small molecule compounds can be calculated in many different ways (reviewed for example in J. Pharm. Sci. (2009) 98, 861). To complement the data provided in Example 6 the calculated lipophilicity of several compounds of the present invention was compared to that of the seco-CBI analogues bearing the same minor groove binding side chain, using four different software packages, i.e. ChemDraw Professional (Perkin Elmer Informatics Inc) as in Example 6, ACD/log P (Advanced Chemistry Development), XLOGP3 (Shanghai Institute of Organic Chemistry), and MLOGP (Talete SRL, Milano, Italy), with the last three accessed via SwissADME (http://swissadme.ch/, Swiss Institute of Bioinformatics). The structures of the compounds are shown (where DNA binding units A, D, E and F, when attached to the 2-methylbenzoxazole alkylating subunit, represent compounds 23, 59, 66 and 74, respectively) and the calculated log P values are collected in Table 3.

Data set [3] can be described thus: Calculated lipophilicity, ChemDraw Professional. To be noted: Table 3; difference CBI minus MBO, same side chain. As for the experimental part:
The lipophilicity was calculated for the representative compounds of the invention using the ChemDraw Professional v.17.0.0 software package (Perkin Elmer Informatics Inc).
as §3

The conditions of data set [4]: Bioorg. Med. Chem. Lett. (2010) 20, 1854; cited from earlier work.
[5] abbreviates: SK-OV-3, 120 h, Example 7, Table 2, continuous exposure 5 days, 96-well plates, read-out: IC50 SKOV3.
[6] abbreviates: SK-OV-3, Example 25, Table 4, DMSO stock diluted in series before addition, n=3-7, read-out: IC50 SKOV3 Average.

pIC50: −log10 of the molar value. “Also recorded” adds a separate entry of the source. Like-named read-outs stand apart in the source and are kept apart here.

In the case of `Cc1nc2c3c(cc(O)c2o1)N(C(=O)OC(C)(C)C)CC3CCl` (stereo not shown), the melting point was in the range of 234 to 238 °C.

`Cc1nc2c3c(cc(OCc4ccccc4)c2o1)N(C(=O)OC(C)(C)C)CC3CCl` (stereo not shown) displayed a melting point of 142 to 143 °C.

Compound `COc1cc2cc(C(=O)N3CC(CCl)c4c3cc(OCc3ccccc3)c3oc(C)nc43)[nH]c2c(OC)c1OC` (stereo not shown) showed a melting point of 225 to 227 °C.

In the case of `COc1cc2cc(C(=O)N3CC(CCl)c4c3cc(O)c3oc(C)nc43)[nH]c2c(OC)c1OC` (stereo not shown) [Compound 23, (8-(Chloromethyl)-4-hydroxy-2-methyl-7,8-dihydro-6H-oxazolo[4,5-e]indol-6-yl)(5,6,7-trimethoxy-1H-indol-2-yl)methanone], the “aqueous stability (LC-MS)” value in data set [1] was “not stable under these conditions and was rapidly converted to a variety of products”. The pIC50 is 9.27 with ovarian carcinoma SKOV3 (setting [5]); 9.49 with ovarian carcinoma SKOV3 (setting [6]); 9.55 in the data set with cervical carcinoma SiHa (120 h, read-out: IC50 SiHa); 9.74 in the data set with cervical carcinoma SiHa (read-out: IC50 SiHa Average). For the same compound, the “LogP ACD Δ” value in data set [2] is recorded as 1.67. Besides, in data set [3], the “LogP ChemDraw Δ” value is 1.48.

`Cc1nc2c3c(cc(O)c2o1)N(C(=O)c1cc2cc(NC(=O)c4cc5cc(OCCN(C)C)ccc5[nH]4)ccc2[nH]1)CC3CCl` (stereo not shown) [Compound 53, N-(2-(8-(Chloromethyl)-4-hydroxy-2-methyl-7,8-dihydro-6H-oxazolo[4,5-e]indole-6-carbonyl)-1H-indol-5-yl)-5-(2-(dimethylamino)ethoxy)-1H-indole-2-carboxamide]: the pIC50 in the data set on ovarian carcinoma SKOV3 (setting [5]) is 8.05; in the data set with ovarian carcinoma SKOV3 (setting [6]), 8.38; with cervical carcinoma SiHa (120 h, read-out: IC50 SiHa), 8.14; in the data set with cervical carcinoma SiHa (read-out: IC50 SiHa Average), 8.54.

On to `COc1ccc(/C=C/C(=O)N2CC(CCl)c3c2cc(O)c2oc(C)nc32)cc1O` (stereo not shown) [Compound 59, (E)-1-(8-(Chloromethyl)-4-hydroxy-2-methyl-7,8-dihydro-6H-oxazolo[4,5-e]indol-6-yl)-3-(3-hydroxy-4-methoxyphenyl) prop-2-en-1-one], for which the pIC50 was 9.30 in the data set on ovarian carcinoma SKOV3 (setting [6]) and 9.21 in the data set on cervical carcinoma SiHa (read-out: IC50 SiHa Average). The “LogP ACD Δ” value in data set [2] is recorded as 1.61. Besides, the “LogP ChemDraw Δ” value in data set [3] is on record as 1.48.

As to `COc1ccc(/C=C/C(=O)Nc2ccc3[nH]c(C(=O)N4CC(CCl)c5c4cc(O)c4oc(C)nc54)cc3c2)cc1` (stereo not shown) [Compound 63, (E)-N-(2-(8-(Chloromethyl)-4-hydroxy-2-methyl-7,8-dihydro-6H-oxazolo[4,5-e]indole-6-carbonyl)-1H-indol-5-yl)-3-(4-methoxyphenyl)acrylamide], the values for the pIC50 in the data set on ovarian carcinoma SKOV3 (setting [6]) and with cervical carcinoma SiHa (read-out: IC50 SiHa Average) were 9.21 and 9.16, respectively.

`COc1ccc2sc(C(=O)N3CC(CCl)c4c3cc(O)c3oc(C)nc43)cc2c1` (stereo not shown) [Compound 65, (8-(Chloromethyl)-4-hydroxy-2-methyl-7,8-dihydro-6H-oxazolo[4,5-e]indol-6-yl)(5-methoxybenzo[b]thiophen-2-yl)methanone]: the pIC50 in the data set on ovarian carcinoma SKOV3 (setting [6]) is 8.77; in the data set on cervical carcinoma SiHa (read-out: IC50 SiHa Average) it was 8.57.

For the compound `COCCOc1ccc2[nH]c(C(=O)N3CC(CCl)c4c3cc(O)c3oc(C)nc43)cc2c1` (stereo not shown) [Compound 66, (8-(Chloromethyl)-4-hydroxy-2-methyl-7,8-dihydro-6H-oxazolo[4,5-e]indol-6-yl)(5-(2-methoxyethoxy)-1H-indol-2-yl)methanone], the pIC50 with ovarian carcinoma SKOV3 (setting [6]) is 9.77; in the data set with cervical carcinoma SiHa (read-out: IC50 SiHa Average), 9.70. Also, in data set [2], the “LogP ACD Δ” value was 1.67. Besides, the “LogP ChemDraw Δ” value in data set [3] is recorded as 1.48.

In the case of `CC(=O)Nc1cnc2[nH]c(C(=O)N3CC(CCl)c4c3cc(O)c3oc(C)nc43)cc2c1` (stereo not shown) [Compound 70, N-(2-(8-(Chloromethyl)-4-hydroxy-2-methyl-7,8-dihydro-6H-oxazolo[4,5-e]indole-6-carbonyl)-1H-pyrrolo[2,3-b]pyridin-5-yl)acetamide], the pIC50 in the data set with ovarian carcinoma SKOV3 (setting [6]) and in the data set on cervical carcinoma SiHa (read-out: IC50 SiHa Average) was less than 7.70 each time.

For the compound `CC(=O)Nc1ccc2nc(C(=O)N3CC(CCl)c4c3cc(O)c3oc(C)nc43)cn2c1` (stereo not shown) [Compound 74, N-(2-(8-(Chloromethyl)-4-hydroxy-2-methyl-7,8-dihydro-6H-oxazolo[4,5-e]indole-6-carbonyl)imidazo[1,2-a]pyridin-6-yl)acetamide], the pIC50 was 7.79 in the data set on ovarian carcinoma SKOV3 (setting [6]) and 7.89 in the data set on cervical carcinoma SiHa (read-out: IC50 SiHa Average). The “LogP ACD Δ” value in data set [2] is reported as 1.66. Further, in data set [3], the “LogP ChemDraw Δ” value is reported as 1.48.

With `COc1cc2cc(C(=O)N3C[C@@H](CCl)c4c3cc(O)c3oc(C)nc43)[nH]c2c(OC)c1OC` [Compound 82, (S)-(8-(Chloromethyl)-4-hydroxy-2-methyl-7,8-dihydro-6H-oxazolo[4,5-e]indol-6-yl)(5,6,7-trimethoxy-1H-indol-2-yl)methanone], the figures for the pIC50 in the data set with ovarian carcinoma SKOV3 (setting [6]) and in the data set with cervical carcinoma SiHa (read-out: IC50 SiHa Average) were 9.52 and 9.82, respectively. Further, the figures for the “differential cytotoxic potency between enantiomers 82 and 83” value with ovarian carcinoma SKOV3 and in the data set on cervical carcinoma SiHa were 110 fold and 93 fold, respectively.

Take `COc1cc2cc(C(=O)N3C[C@H](CCl)c4c3cc(O)c3oc(C)nc43)[nH]c2c(OC)c1OC` [Compound 83, (R)-(8-(chloromethyl)-4-hydroxy-2-methyl-7,8-dihydro-6H-oxazolo[4,5-e]indol-6-yl)(5,6,7-trimethoxy-1H-indol-2-yl)methanone]: the results for the pIC50 in the data set on ovarian carcinoma SKOV3 (setting [6]) and in the data set with cervical carcinoma SiHa (read-out: IC50 SiHa Average) were 7.48 and 7.85, respectively. The results for the “differential cytotoxic potency between enantiomers 82 and 83” value with ovarian carcinoma SKOV3 and in the data set on cervical carcinoma SiHa were 110 fold and 93 fold, respectively.

As for `COc1cc2cc(C(=O)N3CC(CCl)c4c3cc(O)c3ccccc43)[nH]c2c(OC)c1OC` (stereo not shown) [Seco-CBI-TMI, reference compound], the “aqueous stability (LC-MS)” value in data set [1] is “clean conversion to the cyclopropyl form (CBI-TMI), which was stable under these conditions; also recorded: prolonged stability”. Besides, the pIC50 is 9.24 in the data set with ovarian carcinoma SKOV3 (setting [5]); 9.57 in the data set with ovarian carcinoma SKOV3 (setting [6]); 9.64 with cervical carcinoma SiHa (120 h, read-out: IC50 SiHa); 9.80 with cervical carcinoma SiHa (read-out: IC50 SiHa Average).

`COC(=O)c1nc2c(O)cc3c(c2o1)C(CCl)CN3C(=O)c1cc2cc(OC)c(OC)c(OC)c2[nH]1` (stereo not shown) [seco-COI-TMI]: the “cytotoxicity relative to reference compounds / CBI analogues” value in data set [4] is “several hundred fold less cytotoxic”.

These data come from patent publication US20220098215A1, “DUOCARMYCIN ANALOGUES” (AUCKLAND UNISERVICES LIMITED, priority 2019, published 2022).
